For 28 molecules, IC50 results are on record in BindingDB's records for patent US9796704 (SYMPHONY EVOLUTION, INC., 2017).

Holding throughout (test): AlphaScreen Assay
Background: In Alpha technology, singlet oxygen from a donor bead excites a nearby acceptor bead.

One assay deals with Ephrin type-A receptor 2 (Homo sapiens, UniProt P29317).
In assay [1] the target is Vascular endothelial growth factor receptor 2 (Homo sapiens, UniProt P35968).
The target in another assay is T1, Ephrin type-B receptor 4 (Homo sapiens, UniProt P54760).
T1 sequence (P54760 whole entry): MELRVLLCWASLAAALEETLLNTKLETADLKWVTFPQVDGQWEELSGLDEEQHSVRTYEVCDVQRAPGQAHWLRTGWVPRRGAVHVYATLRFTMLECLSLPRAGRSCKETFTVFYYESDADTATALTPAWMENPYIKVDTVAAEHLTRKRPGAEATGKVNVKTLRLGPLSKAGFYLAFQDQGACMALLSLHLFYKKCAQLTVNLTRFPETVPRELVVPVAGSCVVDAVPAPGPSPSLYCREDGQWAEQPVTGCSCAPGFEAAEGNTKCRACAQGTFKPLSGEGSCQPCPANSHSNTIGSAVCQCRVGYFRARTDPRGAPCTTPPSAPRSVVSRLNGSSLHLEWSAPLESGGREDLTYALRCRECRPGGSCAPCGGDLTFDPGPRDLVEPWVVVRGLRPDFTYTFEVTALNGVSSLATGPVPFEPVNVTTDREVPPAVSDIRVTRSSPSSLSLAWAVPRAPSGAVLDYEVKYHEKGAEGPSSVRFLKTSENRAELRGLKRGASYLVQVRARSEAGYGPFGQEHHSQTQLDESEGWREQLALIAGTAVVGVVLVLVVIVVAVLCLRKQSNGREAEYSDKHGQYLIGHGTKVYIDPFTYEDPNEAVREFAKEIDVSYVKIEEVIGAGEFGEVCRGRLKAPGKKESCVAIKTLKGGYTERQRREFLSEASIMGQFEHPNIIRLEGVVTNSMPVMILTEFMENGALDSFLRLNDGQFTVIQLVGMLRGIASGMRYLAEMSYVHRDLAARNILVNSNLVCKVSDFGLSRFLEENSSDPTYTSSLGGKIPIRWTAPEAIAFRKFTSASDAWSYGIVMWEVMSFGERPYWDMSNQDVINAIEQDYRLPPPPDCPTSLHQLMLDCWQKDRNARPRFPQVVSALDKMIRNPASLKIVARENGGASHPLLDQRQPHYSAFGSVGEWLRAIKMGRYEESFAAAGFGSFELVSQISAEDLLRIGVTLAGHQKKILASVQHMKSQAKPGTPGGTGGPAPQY

Some results are limits rather than exact numbers.

Sequence of Ephrin type-A receptor 2 (P29317 whole entry): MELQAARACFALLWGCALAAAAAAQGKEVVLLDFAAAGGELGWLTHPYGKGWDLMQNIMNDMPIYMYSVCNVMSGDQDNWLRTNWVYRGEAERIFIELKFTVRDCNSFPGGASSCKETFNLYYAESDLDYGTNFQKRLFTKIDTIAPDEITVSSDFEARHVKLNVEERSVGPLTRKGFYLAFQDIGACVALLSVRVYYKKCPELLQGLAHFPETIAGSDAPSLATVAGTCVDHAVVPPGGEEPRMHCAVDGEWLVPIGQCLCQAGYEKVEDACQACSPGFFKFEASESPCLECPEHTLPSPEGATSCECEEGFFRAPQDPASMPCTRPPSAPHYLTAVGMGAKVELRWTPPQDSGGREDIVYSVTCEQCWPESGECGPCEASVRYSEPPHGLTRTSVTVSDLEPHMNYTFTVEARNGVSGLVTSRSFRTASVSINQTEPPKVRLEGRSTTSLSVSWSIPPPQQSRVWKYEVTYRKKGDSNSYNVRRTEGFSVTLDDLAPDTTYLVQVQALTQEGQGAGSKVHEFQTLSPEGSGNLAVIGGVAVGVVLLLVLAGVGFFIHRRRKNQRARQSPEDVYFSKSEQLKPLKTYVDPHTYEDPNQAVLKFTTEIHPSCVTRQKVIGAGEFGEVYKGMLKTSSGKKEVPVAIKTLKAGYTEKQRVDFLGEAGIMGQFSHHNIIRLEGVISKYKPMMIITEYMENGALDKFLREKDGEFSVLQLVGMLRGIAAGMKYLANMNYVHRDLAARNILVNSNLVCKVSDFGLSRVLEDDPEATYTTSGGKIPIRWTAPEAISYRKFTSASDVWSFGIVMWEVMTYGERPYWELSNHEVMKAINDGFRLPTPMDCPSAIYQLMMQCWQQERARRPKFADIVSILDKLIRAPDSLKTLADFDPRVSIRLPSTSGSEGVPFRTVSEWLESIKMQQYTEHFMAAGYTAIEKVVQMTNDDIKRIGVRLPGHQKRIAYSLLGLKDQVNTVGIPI
Sequence of Vascular endothelial growth factor receptor 2 (P35968 whole entry): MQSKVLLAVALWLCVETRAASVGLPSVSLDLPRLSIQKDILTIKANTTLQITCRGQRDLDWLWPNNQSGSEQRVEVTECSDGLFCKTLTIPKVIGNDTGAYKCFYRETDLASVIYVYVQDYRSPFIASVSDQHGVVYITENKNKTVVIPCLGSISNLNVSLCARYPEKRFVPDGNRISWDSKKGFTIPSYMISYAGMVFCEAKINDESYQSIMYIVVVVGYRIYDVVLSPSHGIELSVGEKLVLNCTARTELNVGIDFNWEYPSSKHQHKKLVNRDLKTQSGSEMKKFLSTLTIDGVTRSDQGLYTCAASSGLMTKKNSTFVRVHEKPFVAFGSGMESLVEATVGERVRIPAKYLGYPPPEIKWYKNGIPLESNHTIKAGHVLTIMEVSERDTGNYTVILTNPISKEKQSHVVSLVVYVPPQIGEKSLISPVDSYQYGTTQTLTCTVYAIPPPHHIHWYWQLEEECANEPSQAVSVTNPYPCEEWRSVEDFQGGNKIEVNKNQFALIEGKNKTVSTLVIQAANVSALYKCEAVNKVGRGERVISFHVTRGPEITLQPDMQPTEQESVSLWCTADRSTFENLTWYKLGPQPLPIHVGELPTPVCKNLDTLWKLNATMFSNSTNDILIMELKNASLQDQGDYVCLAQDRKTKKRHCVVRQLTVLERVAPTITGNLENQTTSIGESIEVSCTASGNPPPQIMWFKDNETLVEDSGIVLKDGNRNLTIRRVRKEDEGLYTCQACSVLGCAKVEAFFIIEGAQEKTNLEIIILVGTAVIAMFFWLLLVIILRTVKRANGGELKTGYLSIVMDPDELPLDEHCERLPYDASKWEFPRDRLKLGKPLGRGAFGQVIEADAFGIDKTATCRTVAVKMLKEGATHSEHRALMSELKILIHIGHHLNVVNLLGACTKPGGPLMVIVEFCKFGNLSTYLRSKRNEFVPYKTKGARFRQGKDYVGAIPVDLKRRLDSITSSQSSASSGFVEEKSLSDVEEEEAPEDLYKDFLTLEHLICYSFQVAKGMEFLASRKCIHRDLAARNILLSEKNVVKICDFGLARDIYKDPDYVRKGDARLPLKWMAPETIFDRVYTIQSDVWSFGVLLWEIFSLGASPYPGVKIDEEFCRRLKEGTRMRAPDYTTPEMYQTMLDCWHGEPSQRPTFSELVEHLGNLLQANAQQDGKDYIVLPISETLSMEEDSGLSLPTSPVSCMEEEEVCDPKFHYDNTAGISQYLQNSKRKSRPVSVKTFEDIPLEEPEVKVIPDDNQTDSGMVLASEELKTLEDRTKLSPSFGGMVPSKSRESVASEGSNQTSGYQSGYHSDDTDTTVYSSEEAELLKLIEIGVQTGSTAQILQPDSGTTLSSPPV

By IC50 is commonly meant the concentration that inhibits the measured activity by half. As to `COc1cc2c(Nc3ccc(Cl)c(C(F)(F)F)c3)ncnc2cc1O[C@@H]1CO[C@@H]2[C@H]1OC[C@H]2F` [US9796704, Entry 121], the IC50 result (against Ephrin type-A receptor 2; in assay [1]; against Ephrin type-B receptor 4) was “in the range around 525 nM” in each case.

For the molecule `COc1cc2c(Nc3cc(F)c(Oc4ccc(Cl)cc4)c(F)c3)ncnc2cc1O[C@@H]1CO[C@@H]2[C@H]1OC[C@H]2F` [US9796704, Entry 101], the half-maximal inhibitory concentration (IC50) result (against Ephrin type-A receptor 2; in assay [1]; on Ephrin type-B receptor 4) was “in the range around 525 nM” each time.

As for `COc1cc2c(Nc3ccc(Cl)c(Cl)c3)ncnc2cc1OCc1cc(Cl)cc2c1OCOC2` [US9796704, Entry 174], the 50% inhibitory concentration (IC50) entry at Ephrin type-A receptor 2 was “in the range around 10500 nM”; in assay [1], “in the range around 525 nM”; at Ephrin type-B receptor 4, “in the range around 10500 nM”.

For `COc1cc2c(Nc3ccc(F)c(Cl)c3F)ncnc2cc1OCC1CO[C@@H]2[C@@H](OC)CO[C@H]12` (some centres undefined) [US9796704, Entry 45], the half-maximal inhibitory concentration (IC50) result (on Ephrin type-A receptor 2; in assay [1]; on Ephrin type-B receptor 4) was “in the range around 10500 nM” throughout.

On to `COc1cc2c(Nc3ccc(Br)c(Cl)c3F)ncnc2cc1O[C@@H]1CO[C@@H]2[C@H]1OC[C@H]2F` [US9796704, Entry 102], for which the IC50 entry (against Ephrin type-A receptor 2; in assay [1]; against Ephrin type-B receptor 4) was “in the range around 525 nM” throughout.

Regarding `COc1cc2c(Nc3ccc(Cl)c(Cl)c3)ncnc2cc1OCc1cc(-c2ccccc2)no1` [US9796704, Entry 177], the IC50 result (against Ephrin type-A receptor 2; in assay [1]; at Ephrin type-B receptor 4) was “in the range around 525 nM” in each case.

`COc1cc2c(Nc3c(F)cc(F)cc3F)ncnc2cc1O[C@@H]1CO[C@@H]2[C@H]1OC[C@H]2F` [US9796704, Entry 100]: the IC50 result (on Ephrin type-A receptor 2; in assay [1]; against Ephrin type-B receptor 4) was “in the range around 525 nM” in each case.

As to `COc1cc2c(Nc3ccc(Cl)c(Cl)c3)ncnc2cc1OCC1CO[C@@H]2C(OC)CO[C@H]12` (some centres undefined) [US9796704, Entry 47], the half-inhibitory concentration (IC50) result (against Ephrin type-A receptor 2; in assay [1]; against Ephrin type-B receptor 4) was “in the range around 10500 nM” in each case.

In the case of `COc1cc2c(Nc3ccc(Cl)c(Cl)c3)ncnc2cc1OCc1nc2ccccc2s1` [US9796704, Entry 162], the IC50 result (against Ephrin type-A receptor 2; in assay [1]; against Ephrin type-B receptor 4) was “in the range around 525 nM” each time.

On to `COc1cc2c(Nc3ccc(F)cc3Cl)ncnc2cc1O[C@@H]1CO[C@@H]2[C@H]1OC[C@H]2F` [US9796704, Entry 85], for which the IC50 result (against Ephrin type-A receptor 2; in assay [1]; against Ephrin type-B receptor 4) was “in the range around 525 nM” each time.

As to `COc1cc2c(Nc3cc(F)ccc3F)ncnc2cc1O[C@@H]1CO[C@@H]2[C@H]1OC[C@H]2F` [US9796704, Entry 91], the half-maximal inhibitory concentration (IC50) entry (at Ephrin type-A receptor 2; in assay [1]; on Ephrin type-B receptor 4) was “in the range around 525 nM” throughout.

Consider `COc1cc2c(Nc3cccc(Cl)c3C)ncnc2cc1O[C@@H]1CO[C@@H]2[C@H]1OC[C@H]2F` [US9796704, Entry 110], for which the IC50 result (against Ephrin type-A receptor 2; in assay [1]; against Ephrin type-B receptor 4) was “in the range around 525 nM” throughout.

Consider `COc1cc2c(Nc3ccc(F)cc3C(F)(F)F)ncnc2cc1O[C@@H]1CO[C@@H]2[C@H]1OC[C@H]2F` [US9796704, Entry 126], for which the half-inhibitory concentration (IC50) result against Ephrin type-A receptor 2 is “in the range around 525 nM”; in assay [1] it was “in the range around 10500 nM”; on Ephrin type-B receptor 4, “in the range around 525 nM”.

As for `COc1cc2c(Nc3ccc(Cl)c(Cl)c3)ncnc2cc1OCc1cccc2nsnc12` [US9796704, Entry 159], the IC50 entry (at Ephrin type-A receptor 2; in assay [1]; against Ephrin type-B receptor 4) was “in the range around 525 nM” in each case.

As for `COc1cc2c(Nc3ccc(Cl)c(Cl)c3)ncnc2cc1OCc1cnn(-c2ccccc2)c1` [US9796704, Entry 165], the IC50 result against Ephrin type-A receptor 2 was “in the range around 525 nM”; in assay [1], “in the range around 10500 nM”; on Ephrin type-B receptor 4, “in the range around 525 nM”.

Regarding `COc1cc2c(Nc3ccc(Cl)c(Cl)c3F)ncnc2cc1OC[C@H]1CN2CCOCC2CO1` (some centres undefined) [US9796704, Entry 29], the concentration for half-maximal inhibition (IC50) against Ephrin type-A receptor 2 was under 50 nM; in assay [1], “in the range around 525 nM”; against Ephrin type-B receptor 4 it was “in the range around 525 nM”.

Take `COc1cc2c(Nc3ccc(Br)c(Cl)c3)ncnc2cc1O[C@H]1CO[C@@H]2[C@@H](OC)[C@@H](OC)O[C@@H]21` [US9796704, Entry 82]: the concentration for half-maximal inhibition (IC50) result (on Ephrin type-A receptor 2; in assay [1]; at Ephrin type-B receptor 4) was “in the range around 525 nM” throughout.

For the molecule `COc1cc2c(Nc3ccc(F)c(Cl)c3)ncnc2cc1O[C@@H]1CO[C@@H]2[C@H]1OC[C@H]2F` [US9796704, Entry 95], the concentration for half-maximal inhibition (IC50) entry (on Ephrin type-A receptor 2; in assay [1]; against Ephrin type-B receptor 4) was “in the range around 525 nM” in each case.

On to `COc1cc2c(Nc3ccc(Cl)c(Cl)c3)ncnc2cc1OCc1ccc(Cl)nc1` [US9796704, Entry 171], for which the IC50 entry against Ephrin type-A receptor 2 was “in the range around 10500 nM”; in assay [1], “in the range around 525 nM”; against Ephrin type-B receptor 4 it was “in the range around 525 nM”.

As for `COc1cc2c(Nc3ccc(C)c(Br)c3)ncnc2cc1O[C@@H]1CO[C@@H]2[C@H]1OC[C@H]2F` [US9796704, Entry 131], the IC50 result (against Ephrin type-A receptor 2; in assay [1]; against Ephrin type-B receptor 4) was “in the range around 525 nM” in each case.

Turning to `COc1cc2c(Nc3ccc(Cl)c(Cl)c3)ncnc2cc1OCc1c(OC)ccc2cc(Br)ccc12` [US9796704, Entry 169], the IC50 entry was “in the range around 10500 nM” against Ephrin type-A receptor 2, “in the range around 525 nM” in assay [1] and “in the range around 525 nM” on Ephrin type-B receptor 4.

As to `COc1cc2c(Nc3ccc(Cl)c(Cl)c3)ncnc2cc1OCc1c(C(F)(F)F)nn(C)c1Oc1ccc(Cl)cc1Cl` [US9796704, Entry 181], the IC50 result (against Ephrin type-A receptor 2; in assay [1]; against Ephrin type-B receptor 4) was “in the range around 525 nM” in each case.

In the case of `C=C1CO[C@@H]2[C@@H](Oc3cc4ncnc(Nc5ccc(Br)c(Cl)c5)c4cc3OC)CO[C@H]12` [US9796704, Entry 81], the IC50 result (at Ephrin type-A receptor 2; in assay [1]; on Ephrin type-B receptor 4) was “in the range around 525 nM” in each case.

Regarding `COc1cc2c(Nc3ccc(Br)c(Cl)c3F)ncnc2cc1OC[C@H]1CN2CCOCC2CO1` (some centres undefined) [US9796704, Entry 30], the figures for the IC50 (against Ephrin type-A receptor 2; in assay [1]; against Ephrin type-B receptor 4) were under 50 nM, “in the range around 525 nM” and under 50 nM, respectively.

For the molecule `COc1cc2c(Nc3ccc(Cl)c(Cl)c3)ncnc2cc1OCc1csc(C)n1` [US9796704, Entry 173], the half-maximal inhibitory concentration (IC50) entry (against Ephrin type-A receptor 2; in assay [1]; against Ephrin type-B receptor 4) was “in the range around 525 nM” in each case.

With `COc1cc2c(Nc3ccc(Cl)c(Cl)c3)ncnc2cc1OCc1c(C)cc(C)cc1C` [US9796704, Entry 178], the IC50 entry (on Ephrin type-A receptor 2; in assay [1]; on Ephrin type-B receptor 4) was “in the range around 10500 nM” throughout.

Regarding `COc1cc2c(Nc3ccc(Br)cc3)ncnc2cc1O[C@@H]1CO[C@@H]2[C@H]1OC[C@H]2F` [US9796704, Entry 130], the concentration for half-maximal inhibition (IC50) result (against Ephrin type-A receptor 2; in assay [1]; against Ephrin type-B receptor 4) was “in the range around 525 nM” throughout.

Turning to `COc1cc2c(Nc3ccc(Cl)c(Cl)c3)ncnc2cc1OCc1noc(COCc2ccccc2)n1` [US9796704, Entry 211], the IC50 result (against Ephrin type-A receptor 2; in assay [1]; against Ephrin type-B receptor 4) was “in the range around 525 nM” each time.
